In brackets after ≈: the same amount, converted by molar mass.
Tests used:
[1] = system: A. fumigatus UPR-responsive genes; experiment: A. fumigatus UPR gene expression (qRT-PCR); format: cell-based, Aspergillus fumigatus; details: single agent (16 µg/mL 1, or 1 mM DTT for 1 hour); normalized to DMSO
Protocol: We cultured 5 × 10^6 CEA10 conidia/mL in liquid GMM for 18 hours at 37°C with shaking at 250 rpm. Cultures were treated with either DMSO or 16 µg/mL 1 for 2 hours at 37°C, 250 rpm. Then 1 mM DTT or water was added, and cultures were incubated for an additional hour. Mycelia were collected with vacuum filtration and immediately frozen with liquid nitrogen. Tissue was lyophilized then ground with glass beads with a bead beater. RNA was extracted in 1 mL of TRIazole solution (Life Technologies, Cat # 15596026), then RNA was purified with two rounds of chloroform extraction. Five micrograms of RNA was treated with TURBO DNA-free kit (Invitrogen, Cat # AM1907) according to the manufacturer’s protocol. Five hundred nanograms of DNAse-treated RNA was used for cDNA synthesis with iScript cDNA synthesis kit (BioRad, Cat # 1708891), then cDNA was diluted 1:5 with ddH2O. Quantitative real time PCR analysis was performed in 20 µL reactions using 2 µL of dilute cDNA per reaction with iQ SYBR Green Supermix (BioRad). Samples were run on a BioRad CFX Connect using a three-step amplification with 54°C annealing temperature and melt curve analysis. Gene expression is normalized to tubA and tef1 expression. Gene expression was performed in biological triplicate. Primers to detect HacA splicing and targets were designed as previously described ([51]).

C. neoformans = experiment: MIC testing (CLSI broth dilution); format: cell-based; details: Cryptococcus neoformans, 72 h, strain H99; CLSI conditions
Protocol: (§1) MICs were determined using Clinical and Laboratory Standards Institute guidelines ([48], [49]). All yeasts were cultured overnight in 3 mL YPD at 30°C, then washed twice in sterile phosphate-buffered saline (PBS). Twofold serial dilutions of each drug were prepared in RMPI + MOPS, then 1 × 10^3 cells were added per well. For mold species, wells were inoculated with 1.25 × 10^3 conidia per well. Plates were incubated at 37°C for 24 (Candida spp. and S. cerevisiae), 48 (Aspergillus spp., M. circinelloides, S. apiospermum, and L. prolificans), or 72 (C. neoformans and F. oxysporum) hours. S. cerevisiae BY4743 MICs were tested in YPD due to nutritional requirements of this strain. Each assay was performed in technical duplicate in at least two independent experiments performed on different days.

A. fumigatus = experiment: MIC testing (CLSI broth dilution); format: cell-based; details: Aspergillus fumigatus, 48 h, strain CEA10; CLSI conditions, 48 h; read-out: MIC
Protocol: as §1

[2] = system: A. fumigatus collagenase secretion; experiment: Detection of secreted collagenase by azocoll; format: cell-based, Aspergillus fumigatus; details: treated with 1/2 MIC of each compound
Protocol: 1 × 10^6 CEA10 conidia/mL were cultured in 25 mL liquid GMM for 18 hours, then mycelia were washed with sterile ddH2O and transferred to 10% FBS-MM and treated with DMSO or the indicated concentration of drugs. Cultures were incubated at 37°C, 250 rpm, for an additional 24 hours, then the supernatant and biomass were collected. One milliliter of supernatant was spun at top speed for 5 min. Azocoll of <50 mesh (Sigma, Cat # 194932) was washed in buffer (50 mM Tris, pH 7.5, 1 mM NaCl, and 0.01% sodium azide) then resuspended to 5 mg/mL. Fifteen microliters of culture supernatant was added to the 2 mL azocoll solution and incubated at 37°C with shaking at 300 rpm for 3 hours in the dark. Reactions were spun at maximum speed for 3 min; 200 µL of supernatant was then transferred to a 96-well plate; and Abs 520 was measured. Biomass was lyophilized, and absorbance readings were normalized to milligram tissue. Data represent the mean and SEM of biological triplicates with technical duplicates except for compounds 5 and 7, which are biological duplicates due to the limited availability of the drug and the required culture size for this assay.

A. fumigatus biofilms = experiment: A. fumigatus hyphal (biofilm) activity, resazurin; format: cell-based, Aspergillus fumigatus; details: conidia germinated 14 hours, escalating doses 24 hours
Protocol: To determine antifungal activity against A. fumigatus hyphae, a 96-well plate was inoculated with 1 × 10^3 conidia per well in 100 µL RPMI + MOPS with the edge wells filled with 200 µL sterile water to minimize edge effects. Plates were incubated at 37°C for 14 hours. A twofold dilution series of 1 or 7 was prepared in RPMI + MOPS at 2× concentration with 0.002% resazurin, then 100 µL of the drug was added to wells, and plates were incubated for an additional 24 hours. Fluorescence was measured with an excitation wavelength of 570 nm and an emission wavelength of 615 nm. Data are representative of two independent experiments performed in biological triplicate.

| SMILES | increase in BipA expression [1] [fold] | increase in PdiA expression [1] [fold] | increase of spliced HacA (HacA^A) [1] | MIC (C. neoformans) [µg/mL] | MIC (A. fumigatus) [µg/mL] | collagenase secretion [2] | inhibition of hyphal growth (A. fumigatus biofilms) |
| --- | --- | --- | --- | --- | --- | --- | --- |
| O[C@@H](CS)[C@@H](O)CS (racemic) [DTT, 1,4-dithiothreitol, reference compound] | 5 | 2 | ~ 1.5 fold | – | – | – | – |
| COC1CCN(c2cc(C3CC(O)C3)ncn2)CC1 (centres unmarked) [compound 6] | – | – | – | > 128 | > 128 | – | – |
| OC1CC(c2cc(NCC3CCN(CCc4ccccc4)CC3)ncn2)C1 (centres unmarked) [compound 7] | – | – | – | > 128 | > 128 | modest but insignificant effect | did not show inhibitory activity |
| OC1CC(c2cc(N3CCC(CCN4CCCC4)CC3)ncn2)C1 (centres unmarked) [compound 4] | – | – | – | 128 (≈ 387 µM) | > 128 | – | – |
| OC1CC(c2cc(N3CCC(Cc4ccc(F)cc4)CC3)ncn2)C1 (centres unmarked) [compound 3] | – | – | – | 4 (≈ 11.7 µM) | 64 (≈ 187 µM) | inhibition of collagenase secretion was similar | – |
